{
  "source": "paper PMC5507300",
  "about": "“Antibacterial small molecules targeting the conserved TOPRIM domain of DNA gyrase” (PLoS ONE, 2017)",
  "key": {"[1]": {"molecular_target": "T1, E. coli DNA gyrase (Escherichia coli, UniProt P0AES6)", "T1 construct": "purchased New England Biolabs, Beverly, MA", "assay": "Cleavage complex stabilization gel assay", "format": "biochemical", "details": "supercoiled pUC19", "description": "Cleavage complex stabilization was detected by assembling a gyrase reaction, as above, containing 0.4μL compound (in 100% DMSO), 12.5 μL H2O, 4 μL 5X buffer, 0.4 μL supercoiled pUC19 DNA substrate (0.4 μg), 3 μL gyrase (15 U). The reaction was incubated at 25°C for 60 min. after which 3 μL 2% SDS and 3 μL 1 mg/mL proteinase K were added. […] DNA in the gel was illuminated with UV light and photographed as above."}, "[2]": {"molecular_target": "T1, E. coli DNA gyrase", "assay": "Agarose gel DNA gyrase supercoiling assay, E. coli", "format": "biochemical", "description": "Conditions to measure the supercoiling of a relaxed, closed-circular plasmid substrate and cleavage complex stabilization in agarose gels were adapted from the literature and carried out as described below. Plasmid supercoiling reactions were assembled by combining 0.4 μL compound (in 100% DMSO), 12.5 μL H2O, 4 μL 5Xbuffer, 0.4 μL relaxed pUC19 DNA substrate (0.5 μg), […] dilute DNA gyrase (buffer, substrate, and enzyme from New England Biolabs, Beverly, MA). Alternatively the substrate pHOT-1 (TopoGEN, Buena Vista, CO) was used as noted (the substrate from New England Biolabs has been discontinued). P. aeruginosa DNA gyrase was supplied by Inspiralis, Norwich, UK. Reactions were allowed to proceed for 30 min. at 37°C after which 5 μL of stop buffer (5% sarkosyl, 25% glycerol, 1X Blue Juice [Invitrogen, Carlsbad, CA]) were added. Reactions were then extracted with 20 μL chloroform/isoamylOH (24:1) and a portion of the aqueous phase was loaded into a well in a 1% agarose/Tris-borate EDTA gel. Electrophoresis was conducted at 35 VDC until the loading dye migrated about 6.5 cm down the gel. DNA in the gel was then stained in 0.5 μg/mL ethidium bromide in water for 30 min. and rinsed (3X) in H2O. The gel was illuminated with UV light, photographed, and DNA quantitated with an Alpha Imager and accompanying software (ProteinSimple, San Jose, CA)."}, "[3]": {"system": "E. coli HS151 (qnrVC)", "assay": "Broth microdilution MIC, E. coli HS151 (qnrVC)", "format": "cell-based", "source_text": "E. coli HS151 (ΔtolC) has been described previously. Gyrase inhibitor-resistant isolates (GYR101-108) were derived by selection for spontaneous resistance to MRL-770 or MRL-423 (Fig 1) in E. coli HS151 as described below. E. coli BW25113 and the Keio gene deletion collection based on BW25113 [25] were obtained from Thermo Fisher Scientific (Waltham, MA) and described in [26]. The plasmid-borne FQ resistance determinant, qnrVC3 [27], was kindly provided by D. Hooper (Massachusetts General Hospital). MB9796 (A. baumannii) is a derivative of MB9797 (ATCC19606) lacking lipopolysaccharide. The efflux-defective P. aeruginosa strain MB5890 (CB398) is a derivative of MB5919 (PAO1). MB2884 (E. coli) and CL15245 (K. pneumoniae) are clinical isolates from the Merck & Co., Inc., Kenilworth, NJ, USA, strain collection. S. aureus COL is a methicillin-resistant clinical isolate.\nCompound doubling dilutions were prepared in 100% DMSO (Sigma Aldrich) and 2 μL of each dilution was transferred to a 96-well plate with lid (Thermo Scientific). Inoculum for all MIC testing was prepared using the BBL Prompt Inoculation System (Becton Dickinson, Franklin Lakes, NJ USA) as described by the manufacturer to produce a suspension of cells at approximately 1.5 x 10^8 colony forming units (CFU)/mL [34–36] and a further dilution (1:1000) was made into cation adjusted Mueller-Hinton broth (CAMH broth, Becton-Dickinson). One hundred μL of this inoculum were then transferred to each well of the 96-well plate containing diluted compound (above). Plates were covered and incubated overnight (18 hrs.) at 37°C."}, "[4]": {"system": "E. coli HS151", "assay": "In vitro time-dependent bactericidal study", "format": "cell-based", "description": "A culture of E. coli HS151 in CAMH broth was grown overnight (18 hrs.) at 37°C, diluted 1:10,000 in 200 mL of fresh CAMH broth and further incubated for 1 hour at 37°C with shaking. A time-zero sample was then removed and 20 mL portions of the remaining culture were transferred into 125 mL vented flasks to which were added MRL-1082 or control antibiotics, at the indicated concentrations. These flasks were then incubated at 37°C with shaking (70 rpm). Samples were withdrawn at the indicated times, plated on blood agar (trypticase soy agar with 5% sheep blood, Becton-Dickinson) and, following overnight growth at 37°C, colonies were counted to determine CFU/mL."}, "[5]": {"molecular_target": "T2, E. coli topoisomerase IV (Escherichia coli, UniProt P20083)", "T2 construct": "purchased TopoGEN, Inc", "T2 sequence (P20083 whole entry)": "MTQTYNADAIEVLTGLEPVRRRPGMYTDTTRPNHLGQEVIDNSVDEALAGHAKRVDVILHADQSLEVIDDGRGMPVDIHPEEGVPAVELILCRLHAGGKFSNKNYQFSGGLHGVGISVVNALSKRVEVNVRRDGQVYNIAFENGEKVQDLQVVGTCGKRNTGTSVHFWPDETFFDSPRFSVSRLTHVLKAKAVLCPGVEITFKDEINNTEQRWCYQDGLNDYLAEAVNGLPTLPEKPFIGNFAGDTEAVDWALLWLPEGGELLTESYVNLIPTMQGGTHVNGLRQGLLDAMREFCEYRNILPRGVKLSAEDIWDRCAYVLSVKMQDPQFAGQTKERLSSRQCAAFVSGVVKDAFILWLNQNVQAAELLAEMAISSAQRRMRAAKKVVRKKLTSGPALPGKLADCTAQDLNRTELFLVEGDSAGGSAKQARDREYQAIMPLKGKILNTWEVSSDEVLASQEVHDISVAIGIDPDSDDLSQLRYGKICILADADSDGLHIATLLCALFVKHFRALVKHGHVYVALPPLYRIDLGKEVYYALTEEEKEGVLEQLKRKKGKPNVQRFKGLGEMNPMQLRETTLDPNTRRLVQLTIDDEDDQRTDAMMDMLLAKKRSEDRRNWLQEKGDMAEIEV", "T2 sequence (P0AFI2 whole entry, further chain)": "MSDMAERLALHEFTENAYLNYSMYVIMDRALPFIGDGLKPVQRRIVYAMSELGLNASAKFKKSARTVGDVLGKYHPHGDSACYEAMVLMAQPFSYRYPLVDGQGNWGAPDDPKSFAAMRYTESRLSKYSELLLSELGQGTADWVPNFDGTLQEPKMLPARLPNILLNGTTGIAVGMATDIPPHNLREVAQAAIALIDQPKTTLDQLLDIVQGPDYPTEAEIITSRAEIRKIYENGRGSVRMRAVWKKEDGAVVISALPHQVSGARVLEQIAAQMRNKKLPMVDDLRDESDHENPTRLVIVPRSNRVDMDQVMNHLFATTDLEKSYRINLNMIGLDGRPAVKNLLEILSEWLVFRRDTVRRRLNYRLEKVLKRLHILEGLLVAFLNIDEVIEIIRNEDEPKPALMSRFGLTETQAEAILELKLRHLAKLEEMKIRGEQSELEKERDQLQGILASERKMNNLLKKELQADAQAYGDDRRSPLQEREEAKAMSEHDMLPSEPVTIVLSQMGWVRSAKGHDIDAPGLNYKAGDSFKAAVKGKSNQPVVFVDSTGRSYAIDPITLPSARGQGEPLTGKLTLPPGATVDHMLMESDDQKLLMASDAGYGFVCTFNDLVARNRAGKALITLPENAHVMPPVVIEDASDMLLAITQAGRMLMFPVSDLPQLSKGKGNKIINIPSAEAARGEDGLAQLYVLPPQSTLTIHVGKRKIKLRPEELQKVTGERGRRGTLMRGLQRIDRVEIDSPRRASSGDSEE", "assay": "E. coli topoisomerase IV decatenation reaction", "format": "biochemical", "details": "maximum achievable concentration (200 μM), kDNA decatenation"}, "[6]": {"molecular_target": "T3, S. aureus DNA gyrase (Staphylococcus aureus, UniProt P0A0K8)", "T3 construct": "purchased TopoGEN, Inc", "T3 sequence (P0A0K8 whole entry)": "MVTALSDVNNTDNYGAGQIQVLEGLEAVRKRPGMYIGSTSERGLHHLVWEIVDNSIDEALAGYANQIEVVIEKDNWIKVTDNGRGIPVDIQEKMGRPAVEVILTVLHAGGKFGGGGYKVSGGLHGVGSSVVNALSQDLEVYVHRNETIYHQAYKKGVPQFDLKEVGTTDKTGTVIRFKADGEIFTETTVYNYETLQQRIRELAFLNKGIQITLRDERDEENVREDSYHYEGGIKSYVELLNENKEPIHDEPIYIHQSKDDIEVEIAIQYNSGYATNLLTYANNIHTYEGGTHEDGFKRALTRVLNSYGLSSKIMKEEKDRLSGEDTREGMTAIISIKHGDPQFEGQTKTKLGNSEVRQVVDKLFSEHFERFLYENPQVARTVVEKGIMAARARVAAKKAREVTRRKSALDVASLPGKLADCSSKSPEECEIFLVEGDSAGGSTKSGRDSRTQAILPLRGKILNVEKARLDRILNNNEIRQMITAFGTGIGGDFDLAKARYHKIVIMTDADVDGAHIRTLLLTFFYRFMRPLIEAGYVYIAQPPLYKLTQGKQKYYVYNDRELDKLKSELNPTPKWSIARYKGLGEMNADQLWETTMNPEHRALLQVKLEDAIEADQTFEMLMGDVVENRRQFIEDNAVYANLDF", "T3 sequence (P20831 whole entry, further chain)": "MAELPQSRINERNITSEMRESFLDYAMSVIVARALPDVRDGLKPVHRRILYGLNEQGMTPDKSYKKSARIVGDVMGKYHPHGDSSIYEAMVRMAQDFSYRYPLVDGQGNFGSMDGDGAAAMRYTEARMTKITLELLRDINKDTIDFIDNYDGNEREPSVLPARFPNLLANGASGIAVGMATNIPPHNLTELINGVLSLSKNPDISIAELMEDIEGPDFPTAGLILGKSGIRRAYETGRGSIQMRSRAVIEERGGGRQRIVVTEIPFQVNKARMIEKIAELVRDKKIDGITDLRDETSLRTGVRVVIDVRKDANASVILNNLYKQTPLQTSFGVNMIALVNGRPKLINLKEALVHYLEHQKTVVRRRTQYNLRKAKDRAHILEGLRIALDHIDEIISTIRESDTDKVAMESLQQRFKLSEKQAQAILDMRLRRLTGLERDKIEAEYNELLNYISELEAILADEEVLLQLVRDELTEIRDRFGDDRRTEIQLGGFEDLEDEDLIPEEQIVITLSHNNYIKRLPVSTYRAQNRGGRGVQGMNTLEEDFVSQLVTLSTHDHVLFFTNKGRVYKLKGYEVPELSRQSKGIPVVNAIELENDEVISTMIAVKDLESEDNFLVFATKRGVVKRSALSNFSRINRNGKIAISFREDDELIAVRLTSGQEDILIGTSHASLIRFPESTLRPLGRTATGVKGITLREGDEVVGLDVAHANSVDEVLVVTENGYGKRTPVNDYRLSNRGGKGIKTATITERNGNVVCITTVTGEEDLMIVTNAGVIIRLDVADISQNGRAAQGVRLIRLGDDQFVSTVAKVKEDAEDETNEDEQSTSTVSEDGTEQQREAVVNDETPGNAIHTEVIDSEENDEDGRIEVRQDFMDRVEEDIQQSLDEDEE", "assay": "S. aureus DNA gyrase supercoiling reaction", "format": "biochemical", "details": "maximum achievable concentration (200 μM), pHOT-1 supercoiling"}, "[7]": {"system": "DNA synthesis in E. coli JL553", "assay": "Macromolecule synthesis labeling", "format": "cell-based", "details": "E. coli JL553, 25 min exposure, labeled precursor incorporation", "description": "Macromolecule synthesis profiling was conducted as described by Montgomery, et al. with minor modifications. E. coli strain JL553 (tolC, lysE) was used to measure inhibition of DNA, RNA, protein, peptidoglycan and phospholipid biosynthesis while E. coli MB5500 (lpxC [envA1], galE; Merck & Co., Inc., Kenilworth, NJ, USA, strain collection) was used to measure inhibition of lipopolysaccharide biosynthesis. Radioisotope labeled precursors were used at the following final concentrations [2-^14C]-thymidine (2.5 μCi/mL), [^14C(U)]-uridine (0.5 μCi/mL), L-[4, 5-^3H]-leucine (5 μCi/mL), [2-^3H]-glycerol (2 μCi/mL), [^3H]-diaminopimelic acid (3 μCi/mL), D-[1-^14C]-galactose (0.5 μCi/mL). Compound concentrations (3-fold serial dilutions) were chosen to place the minimum inhibitory concentration (see below) near the center of the dose range. Labeled cultures were incubated with compound for 25 min; stopped with trichloroacetic acid, filtered and incorporation was measured as described. Percent inhibition of incorporation was calculated relative to an untreated control culture for each labeled precursor and plotted with GraphPad Prism."}},
  "note": "pIC50: −log10 of the molar value. “Also recorded” adds a separate entry of the source.",
  "data": [
    {"smiles": "Cn1ncc2cc(-c3cnnn3C3CCN(C(=O)Nc4cc(Cl)cc(Cl)c4)CC3)ccc21", "note": "[MRL-423]", "values": [
      {"measurement": "cleavage complex stabilization", "setting": "[1]", "result": "stabilizes cleavage complex formation in a dose-dependent fashion"},
      {"measurement": "pIC50", "setting": "[2]", "result": "~5.12"},
      {"measurement": "resistance conferred by qnrVC3 expression", "setting": "[3]; E. coli HS151 with plasmid qnrVC3 vs HS151", "result": "no effect"},
      {"measurement": "MIC", "setting": "[3]; Escherichia coli", "result": 0.25, "unit": "µg/mL"}
    ]},
    {"smiles": "Cn1ncc2cc(-c3nnnn3C3CCN(C(=O)Nc4ccc(Cl)c(Cl)c4)CC3)ccc21", "note": "[MRL-1082]", "values": [
      {"measurement": "reduction in culture viability", "setting": "[4]; E. coli HS151, 2XMIC or greater, following 2–4 hours of treatment", "result": "greater than 3 log"},
      {"measurement": "culture viability, below lower limit of quantitation", "setting": "[4]; E. coli HS151, 4-8XMIC, after 8 hours", "result": "< 20", "unit": "CFU/mL"},
      {"measurement": "MIC", "setting": "[4]; Escherichia coli, HS151, 24 h, read-out: MIC of isolates from treated culture", "result": 0.0625, "unit": "µg/mL"},
      {"measurement": "activity against E. coli topoisomerase IV", "setting": "[5]", "result": "does not inhibit"},
      {"measurement": "activity against S. aureus DNA gyrase", "setting": "[6]", "result": "does not inhibit"}
    ]},
    {"smiles": "COc1ccc(C)cc1NC(=O)N1CCC(n2nncc2-c2ccc3c(cnn3C)c2)CC1", "note": "[MRL-770]", "values": [
      {"measurement": "inhibition of E. coli DNA gyrase (gel)", "setting": "[2]; S1 Fig, pHOT-1 substrate", "result": "limited; also recorded: dose-dependent inhibition of enzyme activity"},
      {"measurement": "inhibition of macromolecule synthesis", "setting": "[7]", "result": "selective and reproducible inhibition of DNA synthesis"}
    ]}
  ]
}
